Measurements from patent EP0791603A2, “Pure somatostatin antagonist and methods of use thereof” (American Cyanamid Company, priority 1996, dated 1997).
Positions of bridges follow the written chain, without caps; N, C: chain ends. Non-standard residues stand in square brackets, D forms with d. Residues, ends and D or L forms follow the SMILES beside them. Phe(4-NO2) = N[C@@H](Cc1ccc([N+](=O)[O-])cc1)C(=O)O; dPhe(4-NO2) = N[C@H](Cc1ccc([N+](=O)[O-])cc1)C(=O)O; 2Nal = N[C@@H](Cc1ccc2ccccc2c1)C(=O)O; NMeA = CN[C@@H](C)C(=O)O

Columns and labels:
SSTR2 [1] = assay: Cyclic AMP accumulation in intact cells (forskalin stimulated, adrenal binding protein method); assay type: cell-based; conditions: % intrinsic activity
Excerpt: Cyclic AMP accumulation assays are used to determine the functional coupling of somatostatin receptors to effectors. All five cloned somatostatin receptors inhibit cyclic AMP accumulation and adenylyl cyclone activity ^1 ^,2,3,4,5. This evaluation measures cyclic AMP accumulation from intact cells using the adrenal binding protein method. Signal transduction by somatostatin is mediated by lowering intracellular c-AMP levels. This functional assay measures the ability of the test compound to inhibit the effect of somatostatin on forskalin stimulated c-AMP levels. ^1 K. Yasuda, S. Rens-Damiano, C. D. Breder, S. F. Law, C. B. Saper, T. Reisine and G. I. Bell, J. Biol. Chem. 267,20422-20428 (1992). ^2 J. F. Bruno, Y. Xu, J. Song and M. Berelowitz, Proc. Natl. Acad. Sci. USA 89, 11151-11155 (1992). ^3 A. M. O'Carrol, S. J. Lolait, M. König and L. Mahan, Mol. Pharmacol. 42, 939-946 (1992). ^4 J. R. Hadcock, J. Strnad and C. M. Eppler, Mol. Pharmacol. 45, 410-416 (1994). ^5 J. Strnad, C. M. Eppler, M. Corbett and J. R. Hadcock, Biochem. Biophys. Res. Commun.191, 968-976 (1993).
Bovine adrenal gland extracts are prepared according to the method of Brown et al^6 with minor modifications. […] Two-four adrenals are thawed and the cortices are separated on ice: chopped into small pieces; resuspended in 1.5 volumes of buffer containing 0.25 M sucrose, 50 mM Tris-HCl pH 7.4, 25 mM KCl, 5 mM MgCl2 and protease inhibitors (5 µg/ml leupeptin, 5µg/ml aprotinin, 100 µg/ml bacitracin, and 100 µg/ml benzamidine; homogenized with a Polytron and centrifuged for 5 minutes. The resultant supernatant is saved and centrifuged for 15 minutes. This resultant supernatant is saved and stored as 1 mL aliquots at -80°C. Four adrenals glands are usually sufficient to prepare 30-50 one mL aliquots. Each preparation is tested with standards at different dilutions before use in the following experiment. ^6 B. L. Brown, J. D. M. Albano, R. P. Ekins and A. M. Sgherzi, Biochem. J. 121, 561-562 (1971).
Somatostatin-mediated inhibition of cyclic AMP accumulation is measured in intact cells co-incubated with the diterpene forskalin (5 µM) which activates adenylyl cyclase directly and stimulates cyclic AMP accumulation in cells. The medium is aspirated from two 100 mm plates of cells, a 5 mL portion of phosphate-buffered saline containing 2 mM EDTA is added to each plate. The cells are washed off the plate, without scraping. The cells are then pelleted and resuspended in Kreb's Ringers Phosphate (KRP) containing 2 mM CaCl2 (added fresh), washed once and resuspended in 2 ml of KRP with a CaCl2 containing 100 µM IBMX. The cells are counted and the concentration of cells is adjusted to 50,000/70 µl and incubated 15 minutes at room temperature before starting the assay. […]

SSTR2 [2] = molecular target: SSTR2 (Rattus norvegicus, UniProt P30680); assay: Competitive binding, displacement of [125I]Tyr11 S-14; parameters: expressed in transfected cells; conditions: [125I]Tyr11 S-14 250 pM, room temperature 2 hours
Sequence of SSTR2 (Rattus norvegicus, UniProt P30680) (P30680 whole entry): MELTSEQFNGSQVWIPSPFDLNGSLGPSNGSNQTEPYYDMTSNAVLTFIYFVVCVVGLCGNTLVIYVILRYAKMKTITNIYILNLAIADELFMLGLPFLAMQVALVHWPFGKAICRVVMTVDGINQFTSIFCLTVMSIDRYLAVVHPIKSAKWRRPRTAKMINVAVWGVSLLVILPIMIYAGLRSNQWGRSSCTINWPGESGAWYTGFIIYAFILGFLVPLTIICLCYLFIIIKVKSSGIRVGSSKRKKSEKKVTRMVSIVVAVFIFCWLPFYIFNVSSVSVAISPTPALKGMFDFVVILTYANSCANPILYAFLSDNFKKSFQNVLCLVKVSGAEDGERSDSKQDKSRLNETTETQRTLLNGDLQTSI
Method: In this evaluation the concentration of test compound required to displace 50% of somatostatin, SRIF, from the SRIF receptor subtypes expressed in mammalian cells is measured, i.e., the concentration required to inhibit 50% of [^125I] Tyr^11 S-14 (Amersham) (IC50) from binding to the SRIF receptor subtypes.
Radiolabeled SRIF is mixed with pituitary cells, the test compound is added, the mixture is incubated and the radioactivity is measured as compared to control. Reduced radioactivity indicates successful competitive binding of the test compound to the pituitary cell receptor. The concentration of the test compound in nanomolar units required to displace 50% of SRIF from the pituitary cell receptor is calculated and reported in Table II as the IC50 value. Also calculated is the inhibitory constant, Ki.
Tyr^11S-14 (150,000 cpm at 2000 Ci/mmole, 250 pM final concentration). The binding reaction is initiated by adding 2-60µg of membrane protein in a 170 µL volume. Final reaction volume is 200 µl/well. All incubations are carried out at room temperature for 2 hours. Free radioligand is separated from bound ligand by rapid filtration through a glass fiber filter (IH-201-HA) using an Inotech cell harvester. The filter is then washed several times with cold (4°C) binding buffer lacking BSA and protease inhibitors prior to counting in an LKB gamma master counter (78% efficiency). Whatman GFC filters presoaked in 0.3% polyethylenimine (to decrease background) are used.
The IC50 values and Ki values are calculated using the well-known methods described by Y. Cheng and W. H. Prusoff, Biochem. Pharmacol. 22, 3099-3108 (1973), incorporated herein by reference thereto.

| SMILES | % IA (SSTR2 [1]) [%] | IC50 (SSTR2 [2]; membrane protein, read-out: SSTR2 Binding Affinity IC50) [nM] | Ki (SSTR2 [2]; calculated by Cheng and Prusoff, read-out: SSTR2 Binding Affinity Ki) [nM] |
| --- | --- | --- | --- |
| C[C@@H](O)[C@@H]1NC(=O)[C@H](CCCCN)NC(=O)[C@@H](Cc2c[nH]c3ccccc23)NC(=O)[C@H](Cc2ccc(O)cc2)NC(=O)[C@H](NC(=O)[C@@H](N)Cc2ccc(I)cc2)CSSC[C@@H](C(=O)N[C@@H](Cc2ccc(O)cc2)C(N)=O)NC1=O | -12 |  |  |
| NCCCC[C@@H]1NC(=O)[C@@H](Cc2c[nH]c3ccccc23)NC(=O)[C@H](Cc2ccc(O)cc2)NC(=O)[C@H](NC(=O)[C@@H](N)Cc2ccc([N+](=O)[O-])cc2)CSSC[C@@H](C(=O)N[C@@H](Cc2ccc3ccccc3c2)C(N)=O)NC(=O)[C@H](CO)NC1=O (H-[Phe(4-NO2)][dC]Y[dW]KSC[2Nal]-NH2; disulfide 2-7) | 7 |  |  |
| CC(C)[C@@H]1NC(=O)[C@H](CCCCN)NC(=O)[C@@H](Cc2c[nH]c3ccccc23)NC(=O)[C@H](Cc2ccc(O)cc2)NC(=O)[C@H](NC(=O)[C@H](N)Cc2ccc([N+](=O)[O-])cc2)CSSC[C@@H](C(=O)N[C@@H](Cc2ccc(O)cc2)C(N)=O)NC1=O (H-[dPhe(4-NO2)][dC]Y[dW]KVCY-NH2; disulfide 2-7) | 42 |  |  |
| CC(C)[C@@H]1NC(=O)[C@H](CCCCN)NC(=O)[C@@H](Cc2c[nH]c3ccccc23)NC(=O)[C@H](Cc2ccc(O)cc2)NC(=O)[C@H](NC(=O)[C@@H](N)Cc2ccc([N+](=O)[O-])cc2)CSSC[C@@H](C(=O)N(C)[C@@H](C)C(N)=O)NC1=O [H-p-NO2Phe-D-Cys-Tyr-D-Trp-Lys-Val-Cys-N(CH3)Ala-NH2] (H-[Phe(4-NO2)][dC]Y[dW]KVC[NMeA]-NH2; disulfide 2-7) | 29 | 55 | 24.4 |
